Source: US8993765B2, “Tetrahydro-azacarboline MCH-1 antagonists, methods of making, and uses thereof” (Albany Molecular Research, Inc., priority 2010, dated 2015)

Experiments:
human MCH-1 receptor = human MCH-1 receptor (Homo sapiens (Human), UniProt Q99705); assay: Binding Assay for Human Melanin-Concentrating Hormone (MCH-1) Receptor; conditions: membranes of CHO-K1 cells expressing human MCH-1 receptor; for Ki: radioligand displacement, Ki by Cheng Prusoff equation, read-out: MCH1 Ki
Procedure: Binding Assay for Human Melanin-Concentrating Hormone (MCH-1) Receptor
Evaluation of the affinity of compounds for the human MCH-1 receptor was accomplished using 4-(3,4,5-tritritiumbenzyloxy)-1-(1-(2-(pyrrolidin-1-yl)ethyl)-1H-indazol-5-yl)pyridin-2(1H)-one and membranes prepared from stable CHO-K1 cells expressing the human MCH-1 receptor obtained from Euroscreen (Batch 1138). Cell membrane homogenates (8.92 μg protein) were incubated for 60 min at 25° C. with […] of the [^3H]-labeled compound in the absence or presence of the test compound in 50 mM Tris-HCl buffer, pH 7.4. Nonspecific binding was determined in the presence of 50 μM 1-(5-(4-cyanophenyl)bicyclo[3.1.0]hexan-2-yl)-3-(4-fluoro-3-(trifluoromethyl)phenyl)-1-(3-(4-methylpiperazin-1-yl)propyl)urea. Following incubation, the samples were filtered rapidly under vacuum through Skatron 11731 filters, pre-soaked in 0.5% polyethylenimine, and washed with ice-cold 50 mM Tris-HCl buffer, pH 7.4, (wash setting 9,9,0) using a Skatron cell harvester. The filters were counted for radioactivity in a liquid scintillation counter (Tri-Carb 2100TR, Packard) using a scintillation cocktail (Ultima Gold MV, Perkin Elmer).
The results are expressed as a percent inhibition of the control radioligand specific binding. The IC50 value (concentration causing a half-maximal inhibition of control specific binding) and Hill coefficient (nH) were determined by non-linear regression analysis of the competition curve using Hill equation curve fitting. The inhibition constant (Ki) was calculated from the Cheng Prusoff equation: (Ki=IC50/(1+(L/KD)), where L=concentration of radioligand in the assay, and KD=affinity of the radioligand for the receptor.

Sequence of human MCH-1 receptor (Q99705 whole entry): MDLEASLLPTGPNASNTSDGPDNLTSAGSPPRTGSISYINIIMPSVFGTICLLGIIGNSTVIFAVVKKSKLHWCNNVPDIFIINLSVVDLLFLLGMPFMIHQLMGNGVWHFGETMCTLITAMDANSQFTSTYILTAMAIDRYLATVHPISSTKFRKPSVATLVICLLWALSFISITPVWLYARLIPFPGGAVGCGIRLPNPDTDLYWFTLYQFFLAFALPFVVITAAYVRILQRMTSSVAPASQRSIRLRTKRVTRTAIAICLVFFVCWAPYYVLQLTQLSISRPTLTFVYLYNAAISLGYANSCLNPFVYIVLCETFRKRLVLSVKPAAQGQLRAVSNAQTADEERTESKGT

| SMILES | Ki (human MCH-1 receptor) [nM] | melting point | inhibition at 1 µM (human MCH-1 receptor; @ 1 uM test compound, read-out: MCH1 percent inhibition of control radioligand specific binding) [%] |
| --- | --- | --- | --- |
| CC1Cc2c(c3ccc(-n4ccc(OCc5ccc(F)cn5)cc4=O)nc3n2C)CN1.Cl (centres unmarked) [Example 14, 1-(7,9-Dimethyl-5,7,8,9-tetrahydro-6H-pyrido[3′,4′:4,5]pyrrolo[2,3-b]pyridin-2-yl)-4-((5-fluoropyridin-2-yl)methoxy)pyridin-2(1H)-one hydrochloride] | 25 | 288 to 292 °C |  |
| Cl.Cn1c2c(c3ccc(-n4ccc(-c5ccc(C(F)(F)F)cc5)cc4=O)nc31)CNCC2 [Example 10, 1-(9-Methyl-5,7,8,9-tetrahydro-6H-pyrido[3′,4′:4,5]pyrrolo[2,3-b]pyridin-2-yl)-4-(4-(trifluoromethyl)phenyl)pyridin-2(1H)-one hydrochloride] | 4.7 | 278 to 281 °C (dec.) |  |
| Cl.O=c1cc(OCc2ccccc2)ccn1-c1ccn2c3c(nc2c1)CCNC3 [Example 22, 4-(Benzyloxy)-1-(1,2,3,4-tetrahydropyrido[4′,3′:4,5]imidazo[1,2-a]pyridin-7-yl)pyridin-2(1H)-one hydrochloride] | 21 | 280 °C (dec.) |  |
| Cl.O=c1cc(OCc2ccc(F)cn2)ccn1-c1ccc2c(c1)nc1n2CCNC1 [Example 19, 4-((5-Fluoropyridin-2-yl)methoxy)-1-(1,2,3,4-tetrahydropyrazino[1,2-a]benzimidazol-8-yl)pyridin-2(1H)-one hydrochloride] |  | 245 to 255 °C | 72 |
